Read-outs that look alike come from different tables or passages of the source.
Legend:
Pyrenophora teres = experiment: Synergistic mixture microtiter test: Pyrenophora teres; type: cell-based; details: single compound
Puccinia recondita = experiment: Synergistic mixture glasshouse trial: preventative control of brown rust caused by Puccinia recondita; type: in vivo; details: single compound, wheat, untreated control 80% diseased leaf area
Method: The spray solutions were prepared in several steps: The stock solution were prepared: a mixture of acetone and/or dimethylsulfoxide and the wetting agent/emulsifier Wettol, which is based on ethoxylated alkylphenoles, in a relation (volume) solvent-emulsifier of 99 to 1 was added to 25 mg of the compound to give a total of 10 ml. Water was then added to total volume of 100 ml. This stock solution was diluted with the described solvent-emulsifier-water mixture to the given concentration.
The first two developed leaves of pot-grown wheat seedling were sprayed to run-off with an aqueous suspension, containing the concentration of active ingredient or their mixture as described below. The next day the plants were inoculated with spores of Puccinia recondita. To ensure the success the artificial inoculation, the plants were transferred to a humid chamber without light and a relative humidity of 95 to 99% and 20 to 22° C. for 24 h. Then the trial plants were cultivated for 6 days in a greenhouse chamber at 22-26° C. and a relative humidity between 65 and 70%. The extent of fungal attack on the leaves was visually assessed as % diseased leaf area.
The percentages diseased leaf area were converted into efficacies. An efficacy of 0 means that the infection level of the treated plants corresponds to that of the untreated control plants; an efficacy of 100 means that the treated plants were not infected.
The expected efficacies of active compound mixtures were determined using Colby's formula as described earlier herein.

Septoria tritici = experiment: Synergistic mixture microtiter test: leaf blotch on wheat caused by Septoria tritici; type: cell-based; details: single compound
Alternaria solani = experiment: Synergistic mixture microtiter test: Alternaria solani; type: cell-based; details: single compound
Phytophthora infestans = type: cell-based; details: single compound

SMILES	Observed efficacy (%) (Pyrenophora teres; 0.25 ppm)	Observed efficacy (%) (Septoria tritici; 4 ppm)	Observed efficacy (%) (Puccinia recondita; 16 ppm)	Observed efficacy (%) (Alternaria solani; 0.25 ppm)	further results
Fc1ccc([C@]2(Cn3cncn3)O[C@H]2c2ccccc2Cl)cc1 (racemic) [Epoxiconazole, epoxiconazole, reference compound]	8%	–	–	–	Observed efficacy (%) (Puccinia recondita; 0.25 ppm): 0%
O=C(Nc1ccccc1-c1ccc(Cl)cc1)c1cccnc1Cl [Boscalid, boscalid, reference compound]	63%	75%	0%	–	Observed efficacy (%) (Pyrenophora teres; 0.016 ppm): 0%; Observed efficacy (%) (Puccinia recondita; 4 ppm): 0%
CSc1nccc(CNS(=O)(=O)c2ccc(Oc3ncc(C(F)(F)F)cc3Cl)cc2)n1 [Example I-5]	0%	22%	–	2%	Observed efficacy (%) (Pyrenophora teres; 4 ppm): 21%
COc1nccc(CNS(=O)(=O)c2ccc(Oc3ncc(C(F)(F)F)cc3Cl)c(C)c2)n1 [Example I-17, 4-(3-chloro-5-trifluoromethyl-pyridin-2-yloxy)-N-(2-methoxy-pyrimidin-4-ylmethyl)-3-methyl-benzenesulfonamide]	–	–	–	–	melting point: 138 °C
COc1nccc(CNS(=O)(=O)c2ccc(Oc3ccc(C(F)(F)F)cn3)cc2C)n1 [Example I-22]	–	–	–	3%	Observed efficacy (%) (Pyrenophora teres; 0.016 ppm): 1%
O=S(=O)(NCc1ccnc(C2CC2)n1)c1ccc(Oc2ncccc2C(F)(F)F)cc1 [Example I-27]	–	27%	27%	3%	Observed efficacy (%) (Alternaria solani; 4 ppm): 0%; Observed efficacy (%) (Pyrenophora teres; 4 ppm): 26%
CCOc1nccc(CNS(=O)(=O)c2ccc(Oc3ncccc3C(F)(F)F)cc2)n1 [Example I-52]	–	29%	29%	0%	Observed efficacy (%) (Alternaria solani; 4 ppm): 0%; Observed efficacy (%) (Phytophthora infestans; 16 ppm): 53%
CSc1ncc(F)c(CNS(=O)(=O)c2ccc(Oc3ccc(C(F)(F)F)cn3)cc2)n1 [Example I-72]	–	14%	0%	3%	Observed efficacy (%) (Pyrenophora teres; 4 ppm): 14%; Observed efficacy (%) (Puccinia recondita; 4 ppm): 0%
COc1cc(CNS(=O)(=O)c2ccc(Oc3ccc(C(F)(F)F)cn3)cc2)nc(OC)n1 [Example I-88]	16%	–	–	4%	–
COc1cc(CNS(=O)(=O)c2ccc(Oc3ncc(C(F)(F)F)cc3Cl)cc2)nc(OC)n1 [Example I-118]	–	25%	–	1%	–
COc1nccc(CNS(=O)(=O)c2ccc(OCc3cncc(C(F)(F)F)c3)cc2)n1 [Example I-125]	–	23%	–	4%	Observed efficacy (%) (Puccinia recondita; 4 ppm): 13%
COC(=O)N(OC)c1ccccc1COc1ccn(-c2ccc(Cl)cc2)n1 [Pyraclostrobin, pyraclostrobin, reference compound]	–	–	–	–	Observed efficacy (%) (Septoria tritici; 0.063 ppm): 74%; Observed efficacy (%) (Alternaria solani; 0.063 ppm): 48%; Observed efficacy (%) (Pyrenophora teres; 0.004 ppm): 0%; Observed efficacy (%) (Phytophthora infestans; 0.25 ppm): 38%; Observed efficacy (%) (Puccinia recondita; 0.25 ppm): 0%
